Data published in article PMC10327353 (Breast Cancer Research : BCR, 2023).

How the values were obtained:
[1] = system: BT474C1 cells; assay: Cell proliferation assay (CellTiter-Glo), BT474C1; assay type: cell-based, human; settings: Homo sapiens; BT474C1, 72 hrs
Description: BT474C1-Luci Mono1 cells were seeded in 384-well plates at 1500 cells/well in DMEM medium containing 10% FBS and 1 mM Oxaloacetic acid (OAA). A431 cells were seeded in 384-well plates at 1,000 cells/well in DMEM medium containing 10% FBS. After overnight incubation, cells were treated with compounds at various concentrations for 3 days. Then cell viability was measured using a CellTiter-Glo Luminescent Cell Viability Assay from Promega Corp. according to the manufacturer's instructions.

[2] = system: BT474C1-Luci Mono1 BM xenograft; assay: BM (brain metastasis) BT474C1-Luci Mono1 xenograft model; assay type: in vivo, nude mice
Description: The BM model was established by intracerebral (ICB) injection of 4 µl of cell suspension containing 3 × 10^5 cells into each mouse following similar procedures published (30). In brieft, 17β- ESTRADIOL (90-day release 0.36 mg/pellet) were injected subcutaneously 24 hrs before cell inoculation. Under anesthesia, a sagittal incision (approximately 1 cm long) was made over the parieto-occipital bone using a sterile scalpel. Then a hole was punctured on the skull at 2.5 mm to the right of the bregma and 1 mm anterior to the coronal suture using a sterile 25-gauge sharp drill. […] The bioluminescent signals of the implanted cells were measured by the Xenogen IVIS spectrum imaging system (PerkinElmer, USA) to monitor tumor growth. […]
In both BM and LM models, the day of randomization was defined as Day 0 and the treatment was started one day after randomization. The bioluminescence signals and body weight of the mice were measured once weekly. Relative bioluminescence intensity on a specific day was calculated by dividing the bioluminescence intensity on that day by the bioluminescence intensity on Day 0. The tumour growth inhibition (TGI) was calculated by formula: TGI (%) = (1-(relative bioluminescence intensity of treated group)/(relative bioluminescence intensity of control group)) x 100.Establishment of SC model

[3] = DMPK modeling prediction of human half-life
[4] = target: T1, wild-type EGFR (Homo sapiens, UniProt P00533); assay: pEGFR MSD assay in A431 cells; assay type: cell-based
T1 construct: endogenous in cells; host or cells: A431
T1 sequence (P00533 25-1210): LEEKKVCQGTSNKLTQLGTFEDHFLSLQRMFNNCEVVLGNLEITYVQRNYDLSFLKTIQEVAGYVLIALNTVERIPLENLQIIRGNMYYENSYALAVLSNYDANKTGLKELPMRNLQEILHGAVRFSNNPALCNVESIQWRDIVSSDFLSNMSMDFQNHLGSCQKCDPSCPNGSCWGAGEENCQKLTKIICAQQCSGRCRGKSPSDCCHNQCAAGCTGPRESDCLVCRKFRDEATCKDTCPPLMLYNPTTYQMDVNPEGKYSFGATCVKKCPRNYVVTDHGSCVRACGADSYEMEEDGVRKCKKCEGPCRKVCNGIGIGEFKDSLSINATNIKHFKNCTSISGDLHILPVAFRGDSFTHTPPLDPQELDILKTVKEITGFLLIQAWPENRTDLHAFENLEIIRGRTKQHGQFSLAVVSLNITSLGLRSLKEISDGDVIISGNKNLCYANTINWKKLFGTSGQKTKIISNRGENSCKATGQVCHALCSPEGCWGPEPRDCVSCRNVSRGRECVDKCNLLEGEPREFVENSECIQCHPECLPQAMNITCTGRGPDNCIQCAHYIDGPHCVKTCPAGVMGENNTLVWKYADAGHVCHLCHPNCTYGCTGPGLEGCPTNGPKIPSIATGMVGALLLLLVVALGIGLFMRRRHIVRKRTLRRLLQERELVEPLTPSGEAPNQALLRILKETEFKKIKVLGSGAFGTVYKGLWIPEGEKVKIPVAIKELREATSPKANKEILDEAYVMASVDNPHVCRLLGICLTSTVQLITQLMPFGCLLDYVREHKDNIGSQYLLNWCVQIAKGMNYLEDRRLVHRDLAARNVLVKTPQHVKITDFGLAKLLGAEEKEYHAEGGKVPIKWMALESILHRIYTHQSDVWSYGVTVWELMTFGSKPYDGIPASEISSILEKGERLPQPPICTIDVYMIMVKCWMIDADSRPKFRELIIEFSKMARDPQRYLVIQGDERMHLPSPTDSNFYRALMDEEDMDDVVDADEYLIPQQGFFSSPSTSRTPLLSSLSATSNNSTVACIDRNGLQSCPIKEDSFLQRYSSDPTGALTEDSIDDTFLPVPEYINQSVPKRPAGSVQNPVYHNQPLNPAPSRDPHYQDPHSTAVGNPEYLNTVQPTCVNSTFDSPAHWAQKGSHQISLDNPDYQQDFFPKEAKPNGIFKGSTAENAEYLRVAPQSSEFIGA
Description: A431 and BT474C1-Luci Mono1 cells were seeded in 96-well plates at 20,000 cells/well in DMEM medium containing 1% FBS. After overnight incubation, all cells were treated with compounds at a series of concentrations for 4 hrs. For A431 cell line, an extra stimulation with recombinant human EGF (100 ng/ml for 10 minutes) is applied to activate wild-type EGFR following compound treatment. pEGFR^Y1068 and total EGFR levels were measured by an electro chemiluminescent method (MULTI-SPOT®96 4-Spot HB Prototype EGFR Triplex […]: pEGFR (Y1068), Total EGFR; MESO SCALE DISCOVERY, Cat# N45ZB-1) with MSD SECTOR® Imager, which outputs the ratio of pEGFR/total EGFR for each well. pHER2^Y1248 and total HER2 levels were measured similarly using pHER2 (Y1248) Assay Whole Cell Lysate Kit (MESO SCALE DISCOVERY, Cat# K151CLD-3). The percentage of inhibition was calculated as: % Inhibition = 100 x [1 - (ratio of the sample well - ratio of Min ctrl well)/ (ratio of Max ctrl well - ratio of Min ctrl well)].

[5] = system: 121 recombinant human kinases; assay: Kinome selectivity profile, 121-kinase panel; assay type: biochemical; settings: 1 µM DZD1516, Km ATP
Description: In vitro profiling of the 121-recombinant kinase panel was performed at Eurofins UK Ltd (Dundee, UK). In brief, recombinant kinases were incubated within an appropriate buffer containing peptide substrate and radiolabelled γ-^33P-ATP together with the presence or absence of the required compound concentration. The reaction was initiated by adding ATP/Mg^2+ mix. After incubation for 40 minutes at room temperature, the reaction was stopped by adding 3% phosphoric acid solution. A portion of the reaction mix was spotted onto P30 filtermat to trap peptide and washed three times for 5 minutes with phosphoric acid to remove non-specific γ-^33P-ATP. The substrate phosphorylation was then measured by scintillation counting, which determined the level of kinase activity inhibition compared to control reactions. Percentage inhibition data for each kinase was mapped to the kinome tree (www.kinhub.org).

[6] = In vivo CNS-PK study in monkey; settings: female, cynomolgus monkey, CSF (relative to unbound plasma/blood), single PO dose of DZD1516 30 mg/kg
Description: The ability of DZD1516 and DZ2678 to cross the BBB in female Wistar Han rat and female Cynomolgus monkey was studied by assessing the free brain-to-plasma ratio (Kp,uu,brain) and CSF-to-free plasma ratio (Kp,uu,CSF). Total brain-to-blood ratio (Kp,brain) and CSF-to-blood ratio (Kp,CSF) were measured from six time points after oral administration. Free fractions of DZD1516 and DZ2678 in the biological matrix were determined by in vitro plasma and brain binding assay.
Kp,brain= AUCbrain/AUCblood. Kp,CSF was the average of the CSF-to-blood ratios at the evaluated time points. Kp,uu,brain= Kp,brain× fu,brain/fu,blood; Kpuu,CSF= Kp,CSF/fu,blood.
Three female Cynomolgus monkeys were administered with a single PO dose of DZD1516 at 30 mg/kg. The PO dosing formulation was a suspension in 0.5% HPMC E5 in water (w/v). Plasma and CSF samples were collected at 0.5, 1, 2, 4, 8, and 24 hrs post-dose. The concentrations of DZD1516 and metabolite DZ2678 in monkey plasma and CSF were determined by the validated LC-MS/MS method.

[7] = target: potassium ion-channel hERG (Homo sapiens, UniProt Q12809); assay: hERG in vitro safety pharmacology; assay type: biochemical
Chain of potassium ion-channel hERG (Q12809 whole entry): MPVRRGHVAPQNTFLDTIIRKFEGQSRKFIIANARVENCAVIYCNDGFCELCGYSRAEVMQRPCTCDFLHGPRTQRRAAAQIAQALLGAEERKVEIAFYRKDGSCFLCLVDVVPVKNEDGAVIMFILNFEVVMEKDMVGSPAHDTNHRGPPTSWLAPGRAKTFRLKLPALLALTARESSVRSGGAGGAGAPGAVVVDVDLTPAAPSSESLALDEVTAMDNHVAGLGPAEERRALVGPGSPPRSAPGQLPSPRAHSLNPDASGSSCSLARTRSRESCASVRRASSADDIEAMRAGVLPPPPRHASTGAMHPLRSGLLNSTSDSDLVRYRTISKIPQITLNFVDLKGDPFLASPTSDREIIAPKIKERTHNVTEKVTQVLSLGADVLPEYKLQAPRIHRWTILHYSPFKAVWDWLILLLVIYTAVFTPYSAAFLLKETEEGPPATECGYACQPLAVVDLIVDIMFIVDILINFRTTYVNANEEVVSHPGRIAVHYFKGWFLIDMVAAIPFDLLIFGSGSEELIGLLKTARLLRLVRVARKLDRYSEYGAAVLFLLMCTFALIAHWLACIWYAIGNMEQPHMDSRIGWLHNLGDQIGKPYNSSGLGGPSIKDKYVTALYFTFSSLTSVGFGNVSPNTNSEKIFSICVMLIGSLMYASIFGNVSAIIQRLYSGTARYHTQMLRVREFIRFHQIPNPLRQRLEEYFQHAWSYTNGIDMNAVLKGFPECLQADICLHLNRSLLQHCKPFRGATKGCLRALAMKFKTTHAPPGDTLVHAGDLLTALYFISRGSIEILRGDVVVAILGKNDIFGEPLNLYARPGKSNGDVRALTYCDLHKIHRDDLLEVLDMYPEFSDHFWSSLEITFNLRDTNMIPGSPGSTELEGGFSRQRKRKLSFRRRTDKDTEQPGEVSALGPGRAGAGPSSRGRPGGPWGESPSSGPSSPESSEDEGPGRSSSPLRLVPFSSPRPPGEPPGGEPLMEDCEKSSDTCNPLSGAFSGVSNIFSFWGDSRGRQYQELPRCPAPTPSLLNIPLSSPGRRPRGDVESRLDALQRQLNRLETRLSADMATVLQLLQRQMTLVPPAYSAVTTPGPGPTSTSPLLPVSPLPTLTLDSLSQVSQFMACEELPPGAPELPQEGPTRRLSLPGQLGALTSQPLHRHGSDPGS

Compound: COc1cc(O[C@H]2CCN(C)CC2(F)F)c2c(Nc3ccc(Oc4ccn5ncnc5c4)c(C)c3)ncnc2c1 [DZD1516]
- GI50 [1]: 0.02 µM
- TGI ([2]; 100 mg/kg twice daily): 48%
- TGI ([2]; 150 mg/kg twice daily): 79%
- predicted human half-life [3]: about 8 h
- IC50 ([4]; A431, 4 hrs treatment, EGF stimulation): 1.46 µM
- selectivity against wild-type EGFR ([4]; pEGFR A431 vs pHER2 BT474C1): greater than 300 fold
- number of kinases inhibited > 50% [5]: 12
- Kp uu [6]: 4.1
- IC50 [7]: 3.29 µM
